Test results from BindingDB's records for doi:10.1016/s0960-894x(98)00116-4 (University of Waterloo, 1999).
*1 amine or outer side, *2 acyl side, *3 side chain or, on linkers, in order; H or OH if unused. Where a SMILES comes first, the peptide text is derived from it. The star is where a group is joined. γGlu = O=C(O)[CH](CCC(=O)[*:2])N[*:1]; NHOH = ON*

Legend:
[1] = biological target: Lactoylglutathione lyase (Saccharomyces cerevisiae); assay: Compound was evaluated for inhibition of Saccharomyces cerevisiae glyoxalase-I by using enzymatic assay at each of 6 substrate concentrations between 0.1 mM and 2.0 mM
[2] = biological target: Lactoylglutathione lyase (Saccharomyces cerevisiae); assay: Compound was evaluated for inhibition of Saccharomyces cerevisiae glyoxalase-I, activity is determined with 0.5 mM substrate

Compound	Ki [1] [µM]	IC50 [2] [µM]
CN(O)C(=O)CCC(NC(=O)CCC(N)C(=O)O)C(=O)NCC(=O)O (stereo not drawn) [2-Amino-4-[1-(carboxymethyl-carbamoyl)-3-(hydroxy-methyl-carbamoyl)-propylcarbamoyl]-butyric acid anion]	1.9	–
NC(CCC(=O)NC(CCC(=O)NO)C(=O)NCC(=O)O)C(=O)O (stereo not drawn) [2-Amino-4-[1-(carboxymethyl-carbamoyl)-3-hydroxycarbamoyl-propylcarbamoyl]-butyric acid anion] (γGlu-Glu(NHOH)-Gly-OH; configuration not given here)	92.9	–
CCOC(=O)CNC(=O)C(CCC(=O)NO)NC(=O)CCC(N)C(=O)O (stereo not drawn) [2-Amino-4-[1-(ethoxycarbonylmethyl-carbamoyl)-3-hydroxycarbamoyl-propylcarbamoyl]-butyric acid anion] (γGlu-Glu(NHOH)-Gly-OEt; configuration not given here)	–	1620
